pEC50, pIC50: −log10 of the molar value. Entries after “also recorded” stand apart in the source; their conditions may differ. Like-named read-outs stand apart in the source and are kept apart here.
Columns and labels:
[1] = target: T1, parathyroid cell calcium receptor (Bos taurus, UniProt P35384); assay: cell-based; assay type: cell-based; conditions: for effect on intracellular Ca^2+: 500 μM; for potentiation of mobilization of intracellular Ca^2+ elicited by extracellular divalent cations / change in [Ca^2+]i at low extracellular Ca^2+ / increase in [Ca^2+]i at intermediate extracellular Ca^2+: 100 μM; for change in [Ca^2+]i at low extracellular Ca^2+: 0.5 mM extracellular Ca^2+; for increase in [Ca^2+]i at intermediate extracellular Ca^2+: 1-[…] extracellular Ca^2+
T1 sequence (P35384 21-1085 limits assumed): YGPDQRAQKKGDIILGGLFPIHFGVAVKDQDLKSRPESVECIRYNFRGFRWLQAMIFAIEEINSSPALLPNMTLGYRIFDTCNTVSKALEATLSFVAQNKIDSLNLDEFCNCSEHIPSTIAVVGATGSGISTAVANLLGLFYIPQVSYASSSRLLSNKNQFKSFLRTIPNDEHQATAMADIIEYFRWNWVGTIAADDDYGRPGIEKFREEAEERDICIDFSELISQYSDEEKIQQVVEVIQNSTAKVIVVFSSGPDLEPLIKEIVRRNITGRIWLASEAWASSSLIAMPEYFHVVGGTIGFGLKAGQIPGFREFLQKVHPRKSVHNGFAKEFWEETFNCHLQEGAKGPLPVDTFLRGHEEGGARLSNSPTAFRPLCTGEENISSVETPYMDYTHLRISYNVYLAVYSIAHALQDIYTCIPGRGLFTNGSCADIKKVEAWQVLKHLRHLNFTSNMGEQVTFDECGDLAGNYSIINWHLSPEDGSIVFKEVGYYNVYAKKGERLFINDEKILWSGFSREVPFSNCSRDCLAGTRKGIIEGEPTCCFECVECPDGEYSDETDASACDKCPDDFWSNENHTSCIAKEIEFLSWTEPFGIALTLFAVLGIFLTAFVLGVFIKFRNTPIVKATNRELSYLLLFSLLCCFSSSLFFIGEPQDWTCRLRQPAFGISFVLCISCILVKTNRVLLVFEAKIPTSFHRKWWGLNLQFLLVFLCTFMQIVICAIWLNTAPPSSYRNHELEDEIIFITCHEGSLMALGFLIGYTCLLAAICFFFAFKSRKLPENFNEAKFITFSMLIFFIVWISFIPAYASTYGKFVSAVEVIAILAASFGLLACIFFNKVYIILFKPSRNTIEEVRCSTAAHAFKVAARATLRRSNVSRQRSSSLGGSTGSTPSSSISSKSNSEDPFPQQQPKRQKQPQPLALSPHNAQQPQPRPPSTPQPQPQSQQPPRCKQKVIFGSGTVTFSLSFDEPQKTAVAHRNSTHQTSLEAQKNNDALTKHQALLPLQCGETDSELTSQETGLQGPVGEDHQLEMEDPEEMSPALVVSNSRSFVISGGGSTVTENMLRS

[2] = tested on: Ca^2+ influx in parathyroid cells; assay: influx of extracellular Ca^2+ in bovine parathyroid cells; assay type: cell-based; conditions: for [Ca^2+]i: 100 to 1000 μM, 2 mM CaCl2; for effect on increases in [Ca^2+]i elicited by extracellular Ca^2+: pretreatment
[3] = tested on: osteoclast calcium receptor; assay: [Ca^2+]i (indo-1) in rat osteoclasts; assay type: cell-based
net positive charge = assay type: physicochemical; conditions: for Net (+) Charge: Table 1, at physiological pH
[4] = target: T2, parathyroid cell calcium receptor (Homo sapiens, UniProt P41180); assay: [Ca^2+]i (fura-2) in human parathyroid cells; assay type: cell-based; conditions: 1 μM
T2 construct: Dissociated parathyroid cells were prepared from a parathyroid adenoma obtained by surgery from a patient with primary hyperparathyroidism; endogenous in cells; host or cells: primary dissociated human parathyroid cells (adenoma or hyperplastic tissue from surgery)
T2 sequence (P41180 20-1078): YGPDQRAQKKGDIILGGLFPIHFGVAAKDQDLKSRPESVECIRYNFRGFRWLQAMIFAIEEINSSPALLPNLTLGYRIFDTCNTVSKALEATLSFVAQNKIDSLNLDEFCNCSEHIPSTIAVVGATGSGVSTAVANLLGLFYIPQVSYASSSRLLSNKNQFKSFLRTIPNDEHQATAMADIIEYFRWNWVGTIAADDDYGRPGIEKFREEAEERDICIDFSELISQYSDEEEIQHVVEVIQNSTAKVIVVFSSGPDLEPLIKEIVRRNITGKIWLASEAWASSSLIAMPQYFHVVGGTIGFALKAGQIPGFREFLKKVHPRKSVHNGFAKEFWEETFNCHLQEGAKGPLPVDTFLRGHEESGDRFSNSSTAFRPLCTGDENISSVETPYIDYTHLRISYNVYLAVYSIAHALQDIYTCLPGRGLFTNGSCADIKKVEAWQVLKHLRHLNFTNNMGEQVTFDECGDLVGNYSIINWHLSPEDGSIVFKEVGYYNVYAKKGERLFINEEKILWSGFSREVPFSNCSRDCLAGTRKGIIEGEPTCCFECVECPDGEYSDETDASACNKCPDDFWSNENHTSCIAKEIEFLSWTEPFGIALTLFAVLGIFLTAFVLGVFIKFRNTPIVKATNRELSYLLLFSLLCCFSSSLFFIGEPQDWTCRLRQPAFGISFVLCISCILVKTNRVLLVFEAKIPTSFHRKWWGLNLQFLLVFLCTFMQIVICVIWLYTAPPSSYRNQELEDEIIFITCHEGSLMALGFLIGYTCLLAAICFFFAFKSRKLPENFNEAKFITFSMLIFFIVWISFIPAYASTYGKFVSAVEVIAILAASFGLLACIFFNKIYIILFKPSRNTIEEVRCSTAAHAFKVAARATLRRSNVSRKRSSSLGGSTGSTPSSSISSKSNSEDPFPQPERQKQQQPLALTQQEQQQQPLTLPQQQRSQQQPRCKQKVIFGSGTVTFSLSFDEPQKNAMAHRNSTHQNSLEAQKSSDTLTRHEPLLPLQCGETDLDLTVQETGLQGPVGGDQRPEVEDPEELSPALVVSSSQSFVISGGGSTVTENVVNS
Experimental: This section describes procedures used to obtain and treat parathyroid cells from calves and humans. […] Human parathyroid glands, were obtained from patients undergoing surgical removal of parathyroid tissue for primary or uremic hyperparathyroidism (uremic HPT), and were treated similarly to bovine tissue.
Dissociated parathyroid cells were prepared from a parathyroid adenoma obtained by surgery from a patient with primary hyperparathyroidism.

bovine parathyroid cells = assay: PTH secretion from bovine parathyroid cells; assay type: cell-based
Experimental: In most experiments, cells loaded with fura-2 were also used in studies of PTH secretion.
PTH secretion was measured by first suspending cells in PCB containing 0.5 mM CaCl2 and 0.1% BSA.

[5] = serum/blood calcium, PTH, albumin and phosphate in rats, intraperitoneal; assay type: in vivo, rat; conditions: rat, i.p.
Experimental: Compounds shown to activate the bovine parathyroid cell calcium receptor in vitro were tested for hypocalcemic activity in vivo. […] […] […] Serum total calcium, albumin and phosphate were measured by techniques well known in the art.

[6] = target: T1, parathyroid cell calcium receptor; assay: block of extracellular Ca^2+-evoked increases in [Ca^2+]i in bovine parathyroid cells (calcilytic); assay type: cell-based
[7] = target: T3, bovine parathyroid cell calcium receptor (Bos taurus, UniProt P35384); assay: Cl^- current in Xenopus oocytes expressing BoPCaR 1; assay type: cell-based; conditions: 1 mM extracellular Ca^2+
T3 construct: expressed in transfected cells; host or cells: Xenopus laevis oocytes injected with cRNA from BoPCaR 1
T3 sequence (P35384 21-1085 limits assumed): T1 sequence (P35384 21-1085 limits assumed)
Experimental: These responses are mediated by the following series of biochemical events:
Xenopus oocytes were injected with BoPCaR 1, the 5.3 Kb cDNA encoding a bovine parathyroid cell calcium receptor as described in Example 25. After two to three days, Cl^- currents were examined in the oocytes using a two-electrode voltage clamp.
Xenopus oocytes were injected with BoPCaR 1 as described in Example 25. After two to three days, Cl^- currents were examined in the oocytes using two electrode voltage clamp.

## COc1ccc(CC(=O)NCCCCCCCCCCCCN)cc1OC [NPS 384]
[1]; 300 μM
  increase in [Ca^2+]i: did not evoke an increase in [Ca^2+ ]i
  potentiation of transient increases in [Ca^2+]i: fails to do so
[2]; 300 μM
  block of influx of extracellular Ca^2+: blocked influx of extracellular Ca^2+
[2]
  [Ca^2+]i: prompt fall in [Ca^2+ ]i
  effect on increases in [Ca^2+]i elicited by extracellular Ca^2+: depresses steady-state, but not transient increases in [Ca^2+ ]i

## CC(NCCCc1ccccc1)c1ccc(Cl)cc1 (racemic) [Compound 1H]
[3]; Table 6, rat osteoclasts
  pEC50: 3.60

## NCCCCNCCCN [Spermidine]
[3]; osteoclasts, 1000 µM
  increase in [Ca^2+]i relative to maximal extracellular Ca^2+: about 10%
Net positive charge
  Net (+) Charge: +3

## NCCCN(CCCN)CCCNCCCCNCCCN(CCCN)CCCN [NPS 382, N^1, N^1, N^5, N^14, N^14-tetrakis-(3-aminopropyl)spermine]
Net positive charge
  Net (+) Charge: +8

## COCCOC(=O)C1=C(C)NC(C)=C(C(=O)OC(C)C)C1c1cccc([N+](=O)[O-])c1 (centres unmarked) [nimodipine]
[4]
  effect on sustained increases in [Ca^2+]i elicited by extracellular Mg^2+: not affected by nimodipine

## NC[C@H]1O[C@H](O[C@H]2[C@H](O)[C@@H](O[C@H]3O[C@H](CO)[C@@H](O)[C@H](N)[C@H]3O)[C@H](N)C[C@@H]2N)[C@H](N)[C@@H](O)[C@@H]1O [Bekanamycin]
Net positive charge
  Net (+) Charge: +5
  net positive charge at pH 7.3: +5

## N=C(N)NCCC[C@H](N)C(=O)NCCCNCCCNCCCCCNC(=O)[C@H](CC(N)=O)NC(=O)Cc1c[nH]c2cccc(O)c12 [Argiotoxin-659, reference compound]
[1]
  pEC50: 3.52
[1]; 100 to 300 μM
  increases in [Ca^2+]i: evoked transient increases in [Ca^2+ ]i
[1]; EC50 for mobilizing intracellular Ca^2+, bovine parathyroid cells
  pEC50: 3.52
Net positive charge
  Net (+) Charge: +4

## NCCNCCNCCNCCN [TEPA, Tetraethylenepentamine]
Net positive charge
  Net (+) Charge: +5

## NCCCNCCCCNCCCN [Spermine]
Bovine parathyroid cells
  inhibition of PTH secretion: inhibited PTH secretion to the same extent as extracellular Ca^2+

## NCCCN1CCCN(CCCN)CCN(CCCN)CCCN(CCCN)CC1 [NPS 383]
Net positive charge
  Net (+) Charge: +8

## NC[C@H]1O[C@H](O[C@H]2[C@H](O)[C@@H](O[C@H]3O[C@H](CO)[C@@H](O)[C@H](N)[C@H]3O)[C@H](N)C[C@@H]2N)[C@H](O)[C@@H](O)[C@@H]1O [Kanamycin, reference compound]
[1]
  effect on intracellular Ca^2+: without effect
Net positive charge
  net positive charge at pH 7.3: ~+4.5

## COc1cccc(C(C)NCCCc2ccccc2)c1 (racemic) [NPS 467]
[5]
  reduction in serum or whole blood Ca^2+: dose-dependent reduction in serum or whole blood Ca^2+
  time to return toward control levels: 24 h
[5]; all doses
  change in serum albumin or phosphate: no change in serum albumin or phosphate levels
[5]; preliminary studies
  circulating PTH: dose-dependent reduction in circulating levels of PTH

## NCCCCCCCCCCCCN [DADD, 1,12-diaminododecane]
[2]
  [Ca^2+]i: prompt fall in [Ca^2+ ]i
  effect on increases in [Ca^2+]i elicited by extracellular Ca^2+: depresses steady-state, but not transient increases in [Ca^2+ ]i
Net positive charge
  Net (+) Charge: +2

## NCCNCCNCCN [TETA, Triethylenetramine]
Net positive charge
  Net (+) Charge: +4

## Gentamicin
Net positive charge
  Net (+) Charge: +5
  net positive charge at pH 7.3: +5

## CCN(CC)CCCCCCCCOC(=O)c1cc(OC)c(OC)c(OC)c1 [TMB-8, reference compound]
[1]
  potentiation of mobilization of intracellular Ca^2+ elicited by extracellular divalent cations: potentiated the mobilization; also recorded: potentiated transient increases in [Ca^2+ ]i
  change in [Ca^2+]i at low extracellular Ca^2+: evoked no change in [Ca^2+ ]i
  increase in [Ca^2+]i at intermediate extracellular Ca^2+: small, but robust increase
[2]; 100 μM
  block of influx of extracellular Ca^2+: blocked the influx

## NCCCCCCCCCCCCNC(=O)Cc1ccc(O)cc1O [NPS 021]
[6]; 0.5 mM extracellular Ca^2+
  change in [Ca^2+]i by the compound itself: does not by itself cause any change in [Ca^2+ ]i
[6]; bovine parathyroid cells
  pIC50: ~3.70
[6]; read-out: concentration abolishing the increase in [Ca^2+]i evoked by extracellular Ca^2+
  IC100: ~500 µM

## NCCCNCCCCNCCCNCCCN(O)CCCNC(=O)Cc1c[nH]c2ccccc12 [NPS 017, reference compound]
[7]
  Cl^- current: oscillatory increases in the Cl^- current

## NCCCN(CCCN)CCCN(CCCN)CCCCN(CCCN)CCCN(CCCN)CCCN [NPS 381, N^1, N^1, N^5, N^10, N^14, N^14-hexakis-(3-aminopropyl) spermine]
Net positive charge
  Net (+) Charge: +10

## CCC[C@@H]1C[C@@H](C(=O)N[C@@H]([C@H]2O[C@H](SC)[C@H](O)[C@@H](O)[C@H]2O)[C@@H](C)O)N(C)C1 [lincomycin, reference compound]
[1]
  effect on intracellular Ca^2+: without effect
Net positive charge
  net positive charge at pH 7.3: +1

## COc1ccc(CCN(C)CCCC(C#N)(c2cc(OC)c(OC)c(OC)c2)C(C)C)cc1OC [Compound D-600, reference compound]
[1]
  potentiation of mobilization of intracellular Ca^2+ elicited by extracellular divalent cations: potentiated the mobilization
  change in [Ca^2+]i at low extracellular Ca^2+: evoked no change in [Ca^2+ ]i
  increase in [Ca^2+]i at intermediate extracellular Ca^2+: small, but robust increase
[2]; 100 μM
  block of influx of extracellular Ca^2+: blocked the influx

## [H]/N=C(/N)N[C@H]1[C@H](O)[C@@H](O)[C@H](O[C@@H]2O[C@@H](C)[C@](O)(C=O)[C@H]2O[C@@H]2O[C@@H](CO)[C@H](O)[C@@H](O)[C@@H]2NC)[C@@H](N/C(N)=N\[H])[C@@H]1O [Streptomycin]
Net positive charge
  Net (+) Charge: +3
  net positive charge at pH 7.3: +3

## CCOC(=O)C1=C(C)NC(C)=C(C(=O)OC)C1c1cccc([N+](=O)[O-])c1 (centres unmarked) [nitrendipine, reference compound]
[1]; 1 μM
  effect on basal [Ca^2+]i or increases evoked by extracellular Ca^2+: None of the dihydropyridines tested

## COc1cccc([C@@H](C)NCCCc2ccccc2C(F)(F)F)c1 [Compound 21O]
[1]; Table 8 (arylalkylamine calcimimetics), parathyroid cell calcium receptor, read-out: EC50
  pEC50: 6.59
